Results from US6989397B1, “Iron chelators and uses thereof” (University of Queensland, priority 1999, dated 2006).
Values joined by “and” are separate entries in the source; they are usually repeats but may differ in a detail not shown here. Identical values can stand only once.

Columns and labels:
BE-2 neuroblastoma cells = experiment: 59Fe release from prelabelled cells (iron efflux); type: cell-based; conditions: labelled 3 h with 59Fe-transferrin 0.75 μM, reincubated 3 h at 37° C., chelators 50 μM, DFO 100 μM, Mean±SD
Description: The effect of chelators on ^59Fe uptake from ^59Fe-Tf and ^59Fe release from prelabelled cells was studied using standard procedures reported previously (Richardson et al., 1994, J. Lab Clin. Med. 124 660–71). The amount of ^59Fe internalized by the cells was measured by incubation with the general protease pronase (1 mg/ml) for 30 min at 4° C. to remove membrane-bound ^59Fe and Tf (Richardson et al., 1990; Baker et al., 1998, Biochim. Biophys. Acta 1380 21–30).
Table 1. The effect of DFO, 311, PCTH, PCBH, or PCBHH on ^59Fe release from BE-2 neuroblastoma cells, SK-N-MC neuroepithelioma cells, and SK-Mel-28 melanoma cells. Cells were labeled for 3 h at 37° C. with ^59Fe-transferrin (0.75 μM), washed, and then reincubated with the chelators for 3 h at 37° C. […] Results are Mean±SD of three determinations in a typical experiment.

[1] = tested on: SK-N-MC neuroepithelioma cells; experiment: 3H-thymidine, 3H-leucine or 3H-uridine incorporation; type: cell-based, human; conditions: 20 hr with chelators 50 μM, DFO 100 μM, then label 2 h, Mean±SD
Description: Labelling of cells with ^3H-thymidine (20 Ci/mmol: Dupont NEN, MA, U.S.A.), ^3H-uridine (42.7 Ci/mmol/Dupont NEN, MA, U.S.A.) and ^3H-leucine (52 Ci/mmol: Dupont NEN) was estimated after precipitation with trichloroacetic acid (TCA). After a 20 hr incubation with the chelators, ^3H-leucine, ^3H-uridine or ^3H-thymidine (1 μCi/ml) were then added for 2 hrs at 37° C. Subsequently, petri dishes containing cell cultures were placed on ice and washed four times with ice-cold Hanks' balanced salt solution (BSS) and the cells detached from the plate using 1 mM EDTA in Ca/Mg-free saline. The cells were then pelleted by centrifugation, the supernatant removed and the pellet frozen at −70° C. After thawing the cells on ice, 1 ml of ice-cold 20% TCA was added and the solution then vortexed and kept on ice for 1 hr with periodic mixing. This solution was then centrifuged at 15,000 rpm for 15 mins at 4° C. and the supernatant removed. The pellet was then washed twice with 1 ml of ice-cold 10% TCA. The pellet was dissolved in 0.5 ml of 1 M NaOH and transferred to scintillation tubes with 3 ml of scintillant. Radioactivity was measured on a β-scintillation counter (LKB Wallace, Finland).
Table 3. The effect of the chelators on ^3H-thymidine, ^3H-leucine, or ^3H-uridine incorporation into SK-N-MC neuroepithelioma cells. Cells were incubated for 20 hr at 37° C. with either DFO (100 μM) or the other chelators (50 μM). Following this, either ^3H-thymidine, ^3H-leucine, or ^3H-uridine (1 μCi/mL) were added and the cells incubated for an additional 2 h at 37° C. (see Methods for details). Results are Mean±SD (4–5 determinations) from a typical experiment of 2–4 experiments performed.

[2] = tested on: iron-regulatory proteins (IRPs); experiment: iron regulatory protein gel-retardation assay (IRP-RNA binding activity); type: cell-based, human; conditions: SK-N-MC cells, 20 hr incubation; chelators 25 μM, DFO 100 μM, FAC 100 μg/ml
Description: FIG. 5. The effect of the chelators on the RNA-binding activity of the iron-regulatory proteins (IRPs) in the SK-N-MC neuroepithelioma cells. Cells were incubated for 20 h with either medium alone (control), ferric ammonium citrate (FAC: 100 μg/ml), DFO (100 μM), or the other chelators (25 μM).
A gel-retardation assay was used to measure the interaction between the IRPs and IRE using established techniques (Leibold et al., […]. Proc. Natl. Acad. Sci. USA 85 2171–5; Müllner et al., 1989 Cell 58 373–82). Briefly, after incubation with medium alone (control) or medium containing ferric ammonium citrate (100 μg/ml: Aldrich Ltd., Sydney, Australia) or the chelator. […] cells were washed with ice-cold phosphate-buffered saline (PBS) and lysed at 4° C. in 40 μl of ice-cold Munro extraction buffer (10 mM HEPES, pH 7.6, 3 mM MgCl2, 40 mM KCl, 5% glycerol, 1 MM dithiothreitol and 0.5% Nonidet P-40). After lysis, the samples were then centrifuged at 10,000 rpm for 3 mins at 4° C. to remove nuclei and the supernatant stored at −70° C. Frozen cytoplasmic extracts were thawed on ice and then centrifuged at 15,000 rpm for 10 min at 4° C. The protein concentration of the soluble supernatant was determined using the BioRad protein assay (BioRad Ltd., USA). Samples of cytoplasmic extracts were diluted to a protein concentration of 100 μg/ml in Munro buffer without Nonidet P-40 and 1 μg aliquots were analyzed for IRP by incubation with 0.1 ng (approximately 1×10^5 cpm) of ^32P-labelled pGL66 RNA transcript (Leibold et al., 1988). The riboprobe was transcribed in vitro from linearized plasmid templates using SP6 RNA polymerase in the presence of α-^32P UTP (Dupont, NEN). This latter reaction was performed using the Promega Riboprobe In Vitro Transcription Kit (Promega, Madison, Wis., USA). The probe was subsequently purified on a 6% urea/PAGE gel. To form RNA-protein complexes, cytoplasmic extracts containing 1 μg of protein were incubated for 10 mins at room temperature with the ^32P-labelled riboprobe. Unprotected probe was degraded by incubation with 1 U of RNAse T1 for 10 mins at room temperature. Heparin (Sigma) at a final concentration of 5 mg/ml was then added and incubated with the extract for another 10 min at room temperature to exclude non-specific binding. RNA-protein complexes were analyzed in 6% non-denaturing polyacrylamide gels at 4° C. as described by Konarska et al., 1986, Cell 46 845–55. Gels were dried, covered in plastic film and exposed to Kodak XAR films at −70° C. with an intensifying screen.
An important effect of intracellular Fe depletion using DFO is the activation of RNA-binding activity of the iron regulatory proteins (IRP's) (Hentze et al., 1996, Proc. Natl. Acad. Sci. USA 93 8175–82). […] The present inventors examined the effect of a 20 hr incubation with 311, PIH and the PCIH analogues (25 μM) on IRP-RNA binding activity in SK-N-MC cells. In all experiments, DFO (100 μM) was used as a positive control to deplete cells of Fe and increase IRP-RNA binding activity. In contrast, ferric ammonium citrate (FAC: 100 μg/ml) was used to donate Fe to cells and reduce IRP-RNA binding.

SMILES | IRP-RNA binding activity compared to the control (FIG. 5) [2] | % Cellular Iron Released (BE-2 neuroblastoma cells) | 3H-Leucine incorporation, % Control [1] | 3H-Thymidine incorporation, % Control [1] | 3H-Uridine incorporation, % Control [1]
O=C(NN=Cc1c(O)ccc2ccccc12)c1ccncc1 [Chelator 311, 2-hydroxy-1-naphthylaldehyde isonicotinoyl hydrazone, reference compound] | marked increase | 52 ± 1% | 2 % Control and 2 ± 0.3 % Control | 0.1 % Control and 0.1 ± 0.1 % Control | 5 % Control and 5 ± 2 % Control
CC(=O)N(O)CCCCCNC(=O)CCC(=O)N(O)CCCCCNC(=O)CCC(=O)N(O)CCCCCN [DFO, desferrioxamine, reference compound] | increase | 44 ± 2% | 9 % Control and 9 ± 0.7 % Control | 29 ± 13 % Control | 34 % Control and 34 ± 5 % Control
O=C(NN=Cc1ccco1)c1ccncc1 [FIH, 2furoylcarboxaldehyde isonicotinoyl hydrazone] | decreased | – | 78 ± 5 % Control | 17 ± 4 % Control | 48 ± 10 % Control

Second part, led by results:

IRP-RNA binding activity compared to the control (FIG. 5) [2] | SMILES | % Cellular Iron Released (BE-2 neuroblastoma cells) | 3H-Leucine incorporation, % Control [1] | 3H-Thymidine incorporation, % Control [1] | 3H-Uridine incorporation, % Control [1]
marked increase | O=C(NN=Cc1ccccn1)c1ccccc1 [PCBH, 2-pyridylcarboxaldehyde benzoyl hydrazone] | 44 ± 1% | 30 ± 13 % Control | 72 % Control and 72 ± 16 % Control | 31 ± 9 % Control
marked increase | O=C(NN=Cc1ccccn1)c1cccs1 [PCTH, 2-pyridylcarboxaldehyde 2-thiophenecarboxyl hydrazone] | 50 ± 1% | 21 ± 6 % Control | 64 % Control and 64 ± 14 % Control | 43 ± 2 % Control
